1 molecule from US20170095512A1, “METHODS OF INDUCING MYELINATION AND MATURATION OF OLIGODENDROCYTES” (KADIMASTEM LTD., priority 2014, published 2017) can be followed below.

“Also recorded” adds a separate entry of the source.

Assay [1] has as its system human OPC derived from ES cells (O4+ cells). Description: hOPC differentiation assay, O4+ cells (immunostaining, high content screening). Format: cell-based. The method, then:
In order to initiate differentiation 20,000 GPCs were seeded in each well of Matrigel coated plates of 96 wells, or on PolyD-Lysine/laminin (PDL/lam)-coated 96 well plates. Cells were grown in GM media for two to three days. Then GM was replaced by differentiation medium without growth factors, (DMEM/F12, 1% B27, 0.5% N2, Vitamin C (Sigma, 50 ug/ml). Differentiation medium was supplemented with the following tested compounds: […] All media were replaced every other day. Oligodendrocytes were characterized by the presence of the antigen detected by the monoclonal antibody O4 (IgM (R&D). Living cells reacted with O4 antibody diluted 1/200 in medium without growth factors (50 ul/well) and left for 40 minutes in the incubator at 37° C., washed once with GM, fixed with PFA 4% (170 ul per well) for 20 minutes at room temperature, washed 3 times with PBS. Dapi diluted to 0.5 ug/ml was introduced in the second wash for 10 min Afterwards the preparation was blocked with 5% normal goat serum in PBS-- for 20 min, washed and reacted with goat anti mouse IgM Ab-FITC conjugated (Millipore cat A[…]) diluted 1/500, for 45 minutes at room temperature, and washed three times with PBS--. ArrayScan VTI HCS reader system (Cellomis, Thermo-scientific) was used for scanning at least 20 fields for each tested well under 10× objective in both assays (differentiation and myelination). Cellomics Neural profiling bio-application was used for processing and analyzing the images. For differentiation assay, the following parameters were tested: number and percentage of O4+ cells, number of processes, processes length and number of branching points. For myelination assay, the same morphological parameters were tested and in addition: areas of myelinated axons in pixels (MBP&NF overlap area) and Number of myelinated regions (MBP&NF overlap count) were also analyzed. Modifications in the Neuro-profiling bio-application were conducted for this specific purpose. T-test analysis was used to compare between treatments. The 4-parameter Hill-Slope curve fittings were generated by GraphPad Prism software using least squares fitting method and EC50 values were calculated.

Assay [2] deals with hPSC derived oligodendrocytes co-cultured with rodent dorsal root ganglia neurons (MBP+ cells). Description: Co-culture myelination assay (human oligodendrocytes with DRG neurons), MBP staining. Type of assay: cell-based. As to the method:
ArrayScan VTI HCS reader system (Cellomis, Thermo-scientific) was used for scanning at least 20 fields for each tested well under 10× objective in both assays (differentiation and myelination). Cellomics Neural profiling bio-application was used for processing and analyzing the images. For differentiation assay, the following parameters were tested: number and percentage of O4+ cells, number of processes, processes length and number of branching points. For myelination assay, the same morphological parameters were tested and in addition: areas of myelinated axons in pixels (MBP&NF overlap area) and Number of myelinated regions (MBP&NF overlap count) were also analyzed. Modifications in the Neuro-profiling bio-application were conducted for this specific purpose. T-test analysis was used to compare between treatments. The 4-parameter Hill-Slope curve fittings were generated by GraphPad Prism software using least squares fitting method and EC50 values were calculated.
DRG dissociated cells from mouse embryonic day 13 (E13) or rat embryonic day (E15) were seeded on matrigel and PDL-coated 96 well plates (20,000 cells/well). In order to allow long culture and co-culture of neuron axons in 96 well plates without de-attachment, a method where the periphery of each well was scratched leaving sticky edges (and smooth surface) was developed. This scratch methodology enables long lasting culture of neuron axons on 96 well format. Once DRG neurons were seeded they were fed with Neurobasal medium (Gibco) supplemented with B27 (Gibco) and 50 ng/ml NGF (Alomone labs) (NB medium) for 2-3 weeks prior hES-OPC addition. […]
For testing maturation and myelination capacity of the hPSC derived oligodendrocytes, a co-culture system between rodent dorsal root ganglia (DRGs) and hPSCs derived oligodendrocytes was used. The number of MBP+ cells (MBP, a marker of oligodendrocytes' myelin) and Myelin formation (measured by co-localization area between MBP and neurofilament positive neuronal axons) was quantified.

As for `c1ccc2c(-c3cnn4cc(-c5ccc(N6CCNCC6)cc5)cnc34)ccnc2c1` [LDN-193189], the “O4+ cells number / conversion of Olig2+ cells into O4+ cells (summary statement)” value in assay [1] is “increased the number of O4+ and Olig2+ cells; also recorded: stimulates”. Besides, the “number of O4+ cells” value in assay [1] (day 21, Noggin 50 ng/ml + PDGF 20 ng/ml, Dorsomorphin 2 μM, LDN-193189 125 nM) is “increase in the number of O4+ cells”. Further, in assay [1] (dose dependent manner), the “number of processes per cell” value is reported as “increased” and the “total length of processes” value was “increased”. Also, in assay [2], the “MBP+ cells number / differentiation into MBP+ cells (summary statement)” value is recorded as “increased also the number of MBP+ cells”. In addition, the “number of MBP+ cells (mature oligodendrocytes)” value in assay [2] (14 days co-culture, 125 nM LDN-193189 added to MYL media with 50 ng/ml Noggin, vs Noggin alone) is “increased the number of MBP+ cells; also recorded: significant increase”. Also, in assay [2] (14 days co-culture, Noggin+LDN-193189 vs Noggin alone), the total cell count entry is listed as “no difference was observed”.
